Patent US8283367B2, “Proteasome inhibitors and methods of using the same” (Cephalon, Inc., priority 2005, dated 2012)

First: CC(C)C[C@H](NC(=O)[C@@H](NC(=O)c1cncc(-c2ccccc2)c1)[C@@H](C)O)B1O[C@@H]2C[C@@H]3C[C@@H](C3(C)C)[C@]2(C)O1 [H.2.6, 5-Phenyl-pyridine-3-carboxamide, N-[(1S,2R)-1-[[[(1R)-1-[(3aS,4S,6S,7aR)-hexahydro-3a,5,5-trimethyl-4,6-methano-1,3,2-benzodioxaborol-2-yl]-3-methylbutyl]amino]carbonyl]-2-hydroxypropyl]]
Second: CC(C)C[C@H](NC(=O)[C@@H](NC(=O)c1ccc(-c2ccccc2)cn1)[C@@H](C)O)B(O)O [K.2.7, Boronic acid, [(1R)-1-[[(2S,3R)-3-hydroxy-2-[(5-phenyl-pyridine-2-carbonyl)amino]-1-oxobutyl]amino]-3-methylbutyl]]
The melting point of the first is lower: 135 to 140 °C for the first, 190 to 195 °C for the second.

Compared with `CC(C)C[C@H](NC(=O)[C@@H](NC(=O)c1cc(-c2ccccc2)n[nH]1)[C@@H](C)O)B(O)O` [K.2.13, Boronic acid, [(1R)-1-[[(2S,3R)-3-hydroxy-2-[(5-phenyl-2H-pyrazole-3-carbonyl)amino]-1-oxobutyl]amino]-3-methylbutyl]], `Cc1ccc(C(=O)NC[C@H](NC(=O)c2cccnc2)C(=O)N[C@@H](CC(C)C)B(O)O)cc1` [L.2.4, Boronic acid, [(1R)-1-[[(2 S)-3-[(4-methylbenzoyl)amino]-2-[(pyridine-3-carbonyl)amino]-1-oxopropyl]amino]-3-methyibutyl]] is lower in melting point: 232 to 236 °C for the first, 220 to 222 °C for the second.

Compared with `Cc1ccc(C(=O)NC[C@H](NC(=O)c2ccc3ccccc3n2)C(=O)N[C@@H](CC(C)C)B(O)O)cc1` [L.2.5, Boronic acid, [(1R)-1-[[(2 S)-3-[(4-methylbenzoyl)amino]-2-[(quinoline-2-carbonyl)amino]-1-oxopropyl]amino]-3-methylbutyl]], `Cc1ccc(C(=O)NC[C@H](NC(=O)c2cccc(-c3cccs3)n2)C(=O)N[C@@H](CC(C)C)B(O)O)cc1` [L.2.21] is lower in melting point: 235 to 237 °C for the first, 158 to 160 °C for the second.
